# Activity calls are given as the source filed them. The rule behind the calls is not given here.
# Assays:
# [1] = Antiproliferative activity against mouse AML12 cells assessed as inhibition of cell growth incubated for 48 hrs by CCK-8 method; format: toxicity, cell-based
# Hepa 1-6 = assay: Antiproliferative activity against mouse Hepa1-6 cells assessed as inhibition of cell growth incubated for 48 hrs by CCK-8 method; format: functional, cell-based; details: Hepa1-6, 48 h
# HuH-6 = assay: Antiproliferative activity against human HuH-6 cells assessed as inhibition of cell growth incubated for 48 hrs by CCK-8 method; format: functional, cell-based; details: HuH-6, 48 h
# HepG2 = assay: Antiproliferative activity against human HepG2 cells assessed as inhibition of cell growth incubated for 48 hrs by CCK-8 method; format: functional, cell-based; details: HepG2, 48 h
# Huh-7 = assay: Antiproliferative activity against human Huh-7 cells assessed as inhibition of cell growth incubated for 48 hrs by CCK-8 method; format: functional, cell-based; details: Huh-7, 48 h
# HuH-1 [2] = assay: Antiproliferative activity against human HuH-1 cells assessed as inhibition of cell growth incubated for 48 hrs by CCK-8 method; format: functional, cell-based; details: HuH-1, 48 h
# MHCC97H = assay: Antiproliferative activity against human MHCC97H cells assessed as inhibition of cell growth incubated for 48 hrs by CCK-8 method; format: functional, cell-based
# H22 = assay: Antiproliferative activity against mouse H22 cells assessed as inhibition of cell growth incubated for 48 hrs by CCK-8 method; format: functional, cell-based; details: H22, 48 h
# HuH-1 [3] = assay: Antitumor activity against human HuH-1 cells xenografted in NCG mouse model assessed as reduction in tumor cell density at 20 mg/kg, ip administered every other day for 14 days; format: functional, organism-based; details: time 14.0 day
# HuH-1 [4] = assay: Antitumor activity against human HuH-1 cells xenografted in NCG mouse model assessed as increase in tumor cell death at 20 mg/kg, ip administered every other day for 14 days; format: functional, organism-based; details: time 14.0 day
# HuH-1 [5] = assay: Induction of autophagy in human HuH-1 cells assessed as downregulation of P62 expression by […] based analysis; format: functional, cell-based
# HuH-1 [6] = assay: Induction of autophagy in human HuH-1 cells assessed as increase in LC3BI expression by […] based analysis; format: functional, cell-based
# HuH-1 [7] = assay: Induction of autophagy in human HuH-1 cells assessed as increase in LC3BII expression by […] based analysis; format: functional, cell-based
# HuH-1 [8] = assay: Induction of autophagy in human HuH-1 cells assessed as increase in ATG5 expression by […] based analysis; format: functional, cell-based
# [9] = Toxicity in NCG mouse assessed as pathological change in spleen at 15 mg/kg, ip measured after 14 days by H and E staining based analysis; format: organism-based; details: in vivo, 336 h, time 14 day
# [10] = Toxicity in NCG mouse assessed as effect on RBC level at 15 mg/kg, ip measured after 14 days; format: organism-based, Erythrocyte; details: in vivo, 336 h, time 14 day
# [11] = Toxicity in NCG mouse assessed as effect on HCT level at 15 mg/kg, ip measured after 14 days; format: organism-based; details: in vivo, 336 h, time 14 day
# [12] = Toxicity in NCG mouse assessed as effect on UREA level at 15 mg/kg, ip measured after 14 days; format: organism-based; details: in vivo, 336 h, time 14 day
# HuH-1 [13] = assay: Antitumor activity against human HuH-1 cells xenografted in NCG mouse model assessed as reduction in tumor weight at 15 mg/kg, ip administered every other day for 14 days; format: functional, organism-based; details: time 14.0 day
# [14] = Toxicity in NCG mouse assessed as pathological change in heart at 15 mg/kg, ip measured after 14 days by H and E staining based analysis; format: organism-based; details: in vivo, 336 h, time 14 day
# [15] = Toxicity in NCG mouse assessed as effect on MCV level at 15 mg/kg, ip measured after 14 days; format: organism-based; details: in vivo, 336 h, time 14 day
# [16] = Toxicity in NCG mouse assessed as effect on HGB level at 15 mg/kg, ip measured after 14 days; format: organism-based; details: in vivo, 336 h, time 14 day
# [17] = Toxicity in NCG mouse assessed as pathological change in tumor at 15 mg/kg, ip measured after 14 days by H and E staining based analysis; format: organism-based; details: in vivo, 336 h, time 14 day
# HuH-1 [18] = assay: Antitumor activity against human HuH-1 cells xenografted in NCG mouse model assessed as increase in tumor cell death at 15 mg/kg, ip administered every other day for 14 days; format: functional, organism-based; details: time 14.0 day
# [19] = Toxicity in NCG mouse assessed as effect on ALB level at 15 mg/kg, ip measured after 14 days; format: organism-based; details: in vivo, 336 h, time 14 day
# [20] = Toxicity in NCG mouse assessed as effect on ALT level at 15 mg/kg, ip measured after 14 days; format: organism-based; details: in vivo, 336 h, time 14 day
# HuH-1 [21] = assay: Antitumor activity against human HuH-1 cells xenografted in NCG mouse model assessed as reduction in tumor size at 15 mg/kg, ip administered every other day for 14 days; format: functional, organism-based; details: time 14.0 day
# [22] = Toxicity in NCG mouse assessed as effect on MCH level at 15 mg/kg, ip measured after 14 days; format: organism-based; details: in vivo, 336 h, time 14 day
# [23] = Toxicity in NCG mouse assessed as pathological change in kidney at 15 mg/kg, ip measured after 14 days by H and E staining based analysis; format: organism-based; details: in vivo, 336 h, time 14 day
# HuH-1 [24] = assay: Antitumor activity against human HuH-1 cells xenografted in NCG mouse model assessed as reduction in tumor cell density at 15 mg/kg, ip administered every other day for 14 days; format: functional, organism-based; details: time 14.0 day
# [25] = Toxicity in NCG mouse assessed as pathological change in liver at 15 mg/kg, ip measured after 14 days by H and E staining based analysis; format: organism-based; details: in vivo, 336 h, time 14 day
# [26] = Toxicity in NCG mouse assessed as effect on AST level at 15 mg/kg, ip measured after 14 days; format: organism-based; details: in vivo, 336 h, time 14 day
# [27] = Toxicity in NCG mouse assessed as effect on LDH level at 15 mg/kg, ip measured after 14 days; format: organism-based; details: in vivo, 336 h, time 14 day
# [28] = Toxicity in NCG mouse assessed as pathological change in lung at 15 mg/kg, ip measured after 14 days by H and E staining based analysis; format: organism-based; details: in vivo, 336 h, time 14 day
IC50 (HuH-6) [µM],IC50 (HepG2) [µM],IC50 (Huh-7) [µM],IC50 (HuH-1 [2]) [µM],SMILES,IC50 at 48 h [1] [µM],IC50 (Hepa 1-6) [µM],IC50 (MHCC97H) [µM],IC50 (H22) [µM],also measured
> 100,> 100,> 100,> 100,COC(=O)[C@H](CCCCNC(=O)CN1C(=O)C(=O)c2cc(OC)ccc21)NC(=O)CN1C(=O)C(=O)c2cc(OC)ccc21,> 100,> 100,> 100,> 100,
> 100,> 100,29.9,26.4,COC(=O)[C@H](CCCCNC(=O)CN1C(=O)C(=O)c2cc(Cl)ccc21)NC(=O)CN1C(=O)C(=O)c2cc(Cl)ccc21,> 100,> 100,> 100,45.8,
,,14.7,9.63,CNC(=O)c1cc(Oc2ccc(NC(=O)Nc3ccc(Cl)c(C(F)(F)F)c3)cc2)ccn1 [SORAFENIB],,,,10.7,Activity (HuH-1 [3]): Active; Activity (HuH-1 [4]): Active
> 100,> 100,> 100,> 100,COC(=O)[C@H](CCCCNC(=O)CN1C(=O)C(=O)c2ccccc21)NC(=O)CN1C(=O)C(=O)c2ccccc21,> 100,> 100,> 100,> 100,
> 100,> 100,> 100,> 100,COC(=O)[C@H](CCCCNC(=O)CN1C(=O)C(=O)c2cc(F)ccc21)NC(=O)CN1C(=O)C(=O)c2cc(F)ccc21,> 100,> 100,> 100,> 100,Activity (HuH-1 [5]): Active; Activity (HuH-1 [6]): Active; Activity (HuH-1 [7]): Active; Activity (HuH-1 [8]): Active
> 100,> 100,32.9,35.1,COC(=O)[C@H](CCCCNC(=O)CN1C(=O)C(=O)c2cc(C)ccc21)NC(=O)CN1C(=O)C(=O)c2cc(C)ccc21,> 100,> 100,> 100,> 100,
> 100,> 100,8.27,17.1,COC(=O)[C@H](CCCCNC(=O)CN1C(=O)C(=O)c2cc(Br)ccc21)NC(=O)CN1C(=O)C(=O)c2cc(Br)ccc21,> 100,> 100,> 100,16.9,Activity [9]: Non-Toxic; Activity [10]: Non-Toxic; Activity [11]: Non-Toxic; Activity [12]: Non-Toxic; Activity (HuH-1 [13]): Active; Activity [14]: Non-Toxic; Activity [15]: Non-Toxic; Activity [16]: Non-Toxic; Activity [17]: Non-Toxic; Activity (HuH-1 [18]): Active; Activity [19]: Non-Toxic; Activity [20]: Non-Toxic; Activity (HuH-1 [21]): Active; Activity [22]: Non-Toxic; Activity [23]: Non-Toxic; Activity (HuH-1 [24]): Active; Activity [25]: Non-Toxic; Activity [26]: Non-Toxic; Activity [27]: Non-Toxic; Activity [28]: Non-Toxic

# Reference: ChEMBL document CHEMBL5584217, “Synthesis, biological activity evaluation and mechanism of action of novel bis-isatin derivatives as potential anti-liver cancer agents” (Bioorg Med Chem Lett, 2024)
